Data reported in patent publication US9706770B2, “Rodenticide bait comprising difenacoum and method for controlling target rodent pests” (priority 2014, dated 2017).
Like-named read-outs stand apart in the source and are kept apart here.

Tests used:
[1] = in vivo; set-up: species or system rat; conditions: male rats, control composition 56% cis/44% trans, 5.2 mg difenacoum/kg per os on D0; for hepatic concentration: from D+3
Method: (§1) On D0 a control composition of the prior art comprising a molar proportion of cis-difenacoum of 56% and a molar proportion of trans-difenacoum of 44% is administered per os to seven groups of four male laboratory rats (Sprague Dawley rats, Charles River, Saint germain sur l'Arbresle, France) weighing between 180 and 220 g in an amount of 5.2 mg of difenacoum per kilogram of rat. On D+1, D+3, D+5, D+7, D+10, D+14 and D+21, 4 rats are sacrificed. The livers are removed and weighed. A liquid/solid extraction of difenacoum with acetone is performed. The difenacoum is analysed by HPLC on a C8 (250 mm×10 mm) column kept at 30° C. with a mobile phase formed from 80% acetonitrile and 20% acid water. The flow rate of the mobile phase is kept at 2 ml/min and the trans-difenacoum and cis-difenacoum are detected by spectrophotometric analysis at the wavelength of 258 nm. The trans-difenacoum and cis-difenacoum are quantified by calibration with known amounts of trans-difenacoum and cis-difenacoum. The results are given in FIG. 3, in which the hepatic persistence of trans-difenacoum is represented by solid squares (▪) and the hepatic persistence of cis-difenacoum is represented by open diamonds (⋄).

[2] = type: in vivo, rat; conditions: for concentration in the liver: D+1
Method: as §1
On D+1 the concentration of cis-difenacoum in the liver of the female rats (9.6 μg/g of liver) is essentially equivalent to the concentration of cis-difenacoum in the liver of the male rats (7.3 μg/g of liver). The concentration on D+1 of trans-difenacoum in the liver of the female rats (3.3 μg/g of liver) is greater than the concentration of trans-difenacoum in the liver of the male rats (0.9 μg/g of liver). […] For the same dosage, the hepatic concentrations of trans-difenacoum are thus higher in the female at least up to three days after treatment (D0).

[3] = Hepatic persistence of trans and cis stereoisomers after a single per os dose of a mixture (Table 1); type: in vivo, rat; conditions: male Sprague Dawley rats, mixture 56% trans/44% cis, 5.2 mg difenacoum/kg per os on D0, mean of 4 rats
Method: On D0 per os tube feeding is performed on male laboratory rats (Sprague Dawley rats, Charles River, Saint germain sur 1′ Arbresle, France) aged 8 weeks and with a body mass of the order of 200 g with a mixture comprising 56% of trans-difenacoum and 44% of cis-difenacoum in an amount of 5.2 mg of difenacoum per kilogram of rat. The rats are kept alive by daily subcutaneous injection of a solution of vitamin K in an amount of 1 U per rat. On D+1, D+3, D+5, D+7, D+10, D+14 and D+21, 4 rats are anaesthetised with isoflurane and then sacrificed, and the livers are removed and frozen until analysed.

[4] = tested on: Sprague Dawley male rats; test: Coagulation time (Quick time) after a single per os dose of purified cis- or trans-difenacoum; type: in vivo, rat
Method: The comparative study of the rodenticidal efficacy of purified trans-difenacoum and purified cis-difenacoum is carried out by administration by means of a stomach tube (per os): • of a solution of cis-difenacoum to a first group of four “Sprague Dawley” male rats weighing between 180 and 220 g, and • of a solution of trans-difenacoum to a second group of four “Sprague Dawley” male rats weighing between 180 and 220 g.
These solutions of cis-difenacoum and trans-difenacoum are obtained by weighing cis-difenacoum or trans-difenacoum and dilution in a mixture formed from 95% vegetable oil and 5% DMSO.
The doses of cis-difenacoum and trans-difenacoum used are 2.6 mg of cis-difenacoum or trans-difenacoum per kilogram of rat. The dose of 2.6 mg of cis-difenacoum and trans-difenacoum per kilogram of rat corresponds to 4 times the median lethal dose (LD50) of difenacoum for rats. The dose of 5.2 mg of cis-difenacoum or trans-difenacoum per kilogram of rat corresponds to 8 times the median lethal dose (LD50) of difenacoum for rats.
3 ml blood samples are taken from the rats anaesthetised with isoflurane in sample tubes containing citrate (3.2%). The tubes are centrifuged at 2,000 g for 10 minutes and the plasma fraction is collected.
The coagulation time (Quick time) of the plasma is analysed by means of the “Neoplastine CI Determination of Prothrombin Time” kit (Diagnostica Stago, Asnière, France) by measurement on a Thrombotimer option 2 plus (Behnk Electronik, Norderstedt, Germany).
The normal value for the coagulation time of untreated rats is 10 to 20 seconds.

[5] = molecular target: T1, recombinant enzyme rVKORC1 (Rattus norvegicus, UniProt Q6TEK4); test: Inhibition constant of the recombinant enzyme rVKORC1; type: biochemical
T1 sequence (Q6TEK4 1-161): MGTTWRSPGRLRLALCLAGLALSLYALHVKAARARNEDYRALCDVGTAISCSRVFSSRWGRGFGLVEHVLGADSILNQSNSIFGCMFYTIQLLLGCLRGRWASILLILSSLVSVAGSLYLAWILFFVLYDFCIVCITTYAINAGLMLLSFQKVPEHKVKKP
Method: In addition, the value of the inhibition constant (Kicis=60 nM) of the recombinant enzyme rVKORC1 by cis-difenacoum is similar to the value of the inhibition constant of rVKORC1 by trans-difenacoum (Kitrans=30 nM).

[6] = in vivo; type: in vivo, rat; conditions: Sprague Dawley, rat, liver, oral; male rats, one dose per day on D0, D+1, D+2; D+3 (day following the last dose); read-out: hepatic persistence (concentration in the liver)
Method: (§2) Counting from D0 and for three days (D0, D+1 and D+2), trans-difenacoum in an amount of 0.6 mg/kg, 1.2 mg/kg or 2.6 mg/kg (mg of trans-difenacoum per kilogram of male rat) is administered daily to “Sprague Dawley” male rats weighing between 180 and 220 g. On D+3, the coagulation time of these male rats is measured and the concentration of trans-difenacoum in the liver of these male rats (expressed in μg of trans-difenacoum per g of liver) is analysed.

[7] = tested on: Sprague Dawley male rats; test: in vivo; type: in vivo, rat
Method: as §2

[8] = tested on: female Sprague Dawley rats; test: in vivo; type: in vivo, rat
Method: (§3) Counting from D0 and for three days (D0, D+1 and D+2), trans-difenacoum in an amount of 0.3 mg/kg; 0.6 mg/kg; 0.75 mg/kg; 1.2 mg/kg or 2.6 mg/kg (mg of trans-difenacoum per kilogram of female rat) is administered to female “Sprague Dawley” rats in an amount of one dose per day. On D+4, the coagulation time of these female rats is measured and the concentration of trans-difenacoum in the liver (expressed in μg of difenacoum per g of liver) of these female rats is analysed. The administration for three days (D0, D+1 and D+2) in an amount of a dose of trans-difenacoum greater than 0.3 mg/kg/day to female rats achieves at D+4 a high value of the coagulation time (greater than or equal to 500 seconds) in these female rats and a moderate hepatic persistence of less than 10 μg of trans-difenacoum per gram of liver for a dose of less than 2.6 mg/kg.

[9] = in vivo; type: in vivo, rat; conditions: Sprague Dawley, liver, oral, female rats
Method: as §3

[10] = 2.6 mg/kg per os on D0, D+1, untreated 10 to 20 seconds

O=c1oc2ccccc2c(O)c1C1CC(c2ccc(-c3ccccc3)cc2)Cc2ccccc21 (stereo not drawn) [cis-difenacoum, 3-(biphenyl-4-yl)-1-(4-hydroxycoumarin-3-yl)-1,2,3,4-tetrahydronaphthalene, reference compound]
hepatic concentration [1]: 4 µg/g | concentration in the liver ([2]; female rats): 9.6 μg/g of liver | concentration in the liver ([2]; male rats): 7.3 μg/g of liver | Hepatic content ([3]; D + 1, listed as cis): 16.82 µg/g | Hepatic content ([3]; D + 3, listed as cis): 8.28 µg/g | Hepatic content ([3]; D + 5, listed as cis): 4.86 µg/g | Hepatic content ([3]; D + 10, listed as cis): 1.85 µg/g | Hepatic content ([3]; D + 21, listed as cis): 1.41 µg/g | coagulation time (Quick time) [4, 10]: 62 s | Ki [5]: 60 nM

O=c1oc2ccccc2c(O)c1C1CC(c2ccc(-c3ccccc3)cc2)Cc2ccccc21 (stereo not drawn) [trans-difenacoum, 3-(biphenyl-4-yl)-1-(4-hydroxycoumarin-3-yl)-1,2,3,4-tetrahydronaphthalene]
concentration at 1 day ([1]; Sprague Dawley, rat, liver, oral, 5.2 mg/kg, D+1, read-out: hepatic concentration): ~1000 ng/g | hepatic concentration [1]: almost undetectable | concentration at 3 day [6]: ~2000 ng/g | amount contained in a rat corpse ([7]; considering that the liver contains half the ingested trans-difenacoum): about 40 μg | coagulability of the blood (increase in Quick time) ([7]; male rat, dosage of 1.2 mg/kg or higher, three daily doses): uncoagulable | global amount per liver ([7]; male rat, liver mass taken as of the order of 10 g): 20 µg | Quick time ([7]; male rats, 0.6, 1.2 or 2.6 mg/kg one dose per day on D0, D+1, D+2, D+3): massive increase | coagulability of the blood (increase in coagulation time) ([8]; dosage of 0.6 mg/kg or higher, three daily doses): uncoagulable | coagulation time ([8]; dose greater than 0.3 mg/kg/day on D0, D+1, D+2, D+4): greater than or equal to 500 seconds | concentration at 4 day ([9]; 2.6 mg/kg per day, 2.6 mg per day and per kilogram of rat for 3 days, read-out: hepatic concentration): ~12000 ng/g | concentration at 4 day ([9]; rat, three daily doses of less than 2.6 mg/kg, D+4, read-out: hepatic persistence): < 10000 ng/g | concentration in the liver, female rats in comparison with male rats ([2]; D+3): greater in the female rats | concentration in the liver ([2]; female rats): 3.3 μg/g of liver | kinetics of the hepatic elimination, female rats versus male rats ([2]; in particular during the first 3 days): slower in the female rats than in the male rats | concentration in the liver ([2]; male rats): 0.9 μg/g of liver | Hepatic content ([3]; D + 1): 4.22 µg/g | Hepatic content ([3]; D + 3): 1.05 µg/g | Hepatic content ([3]; D + 5): 0.25 µg/g | Hepatic content ([3]; D + 10): 0.1 µg/g | Hepatic content ([3]; D + 21): 0.17 µg/g | coagulation time (Quick time) [4, 10]: 62 s | coagulation time (Quick time) ([4]; 5.2 mg/kg per os on D0, D+1): 84 s | Ki [5]: 30 nM
